The values below come from patent publication US5225566A, “Indazolanonyl derivative of benzopyran” (American Home Products Corporation, priority 1992, dated 1993).

The test system of data set [1] is spontaneously hypertensive rats (SHR). Nature of the data set: Blood pressure lowering and heart rate in conscious spontaneously hypertensive rats, oral. Format: in vivo, rat (male Okamoto-Aoki SHR). The text has this:
The blood pressure lowering activity of the compounds of this invention was established in accordance with standard pharmaceutically accepted test procedures in representative compounds as follows:
Male Okamoto-Aoki spontaneously hypertensive rats (SHR) ranging in weight from 250-400 g were anesthetized with halothane. Their left femoral arteries and veins were cannulated with polyethylene tubing of the appropriate size (i.d. 0.023", o.d. 0.038"). Each animal was placed in a Bollman cage, and the tail, along with two cannulas, was extended through a hole in one end of the cage. The tail was taped securely to a firm rubber board to prevent the rat from turning in its cage to dislodge the cannulas. The femoral arterial cannula was connected to a Statham pressure transducer which in turn was attached to a polygraph for recording arterial pressure and pulse rate. The pulse rate was considered to be the heart rate.
After the blood pressure has stabilized (usually 2 hours after cessation of the anesthesia), standard agonists were injected by the i.v. route. The doses administered were: isoproterenol 0.5 μg/kg, adrenaline 2.0 μg/kg, tyramine 200 μg/kg and angiotensin-I 0.25 μg/kg. The agonists were given in random order except that tyramine was never preceded by isoproterenol as the response to tyramine seemed to be blunted after a prior injection of isoproterenol. Enough time was allowed for the BP to return to preinjection levels before the test compound was administered by gastric lavage. The time of drug administration was designated as time zero. Heart rate and blood pressure were recorded at 5,10,15,30,45 and 60 minutes and hourly thereafter for a period of 4 hours after drug administration. At 1 and 2 hours post-drug the agonists were again injected at the same concentration and in the same order as during the control period.
For each dose, the maximum fall in blood pressure was given in mm Hg and also expressed as a percentage decrease compared to pretreatment control values. Linear regression on the maximum decrease in mean arterial blood pressure at each dose was used to calculate the ED30 (the dose which would lower mean arterial pressure by 30%). A decrease in mean arterial blood pressure of 30% reduces the blood pressure from the hypertensive to the normotensive range.

Data set [2] has as its system isolated rat bladder strips. Nature of the data set: Inhibition of contractions in isolated rat bladder strips. Further details: species or system rat (Sprague-Dawley). Conditions: for IC50: 0.5 h, additional 15 mM KCl, 30 min challenge. The text has this: In addition, smooth muscle relaxing activity of the compounds of this invention was established in accordance with standard pharmaceutically accepted test procedures in representative compounds as follows:
Sprague-Dawley rats (150-200 g) are rendered unconscious by CO2 asphyxiation and then euthanized by cervical dislocation. The bladder is removed into warm (37 deg.C.) physiological salt solution (PSS) of the following composition (mM): NaCl, 118.4; KCl, 4.7; CaCl2, 2.5; […]; NaHCO3, 24.9; KH2 PO4, 1.2; glucose, 11.1; EDTA, 0.023; gassed with […]; pH 7.4. The bladder is opened and then cut into strips 1-2 mm in width and 7-10 mm in length. The strips are subsequently suspended in a 10 ml tissue bath under an initial resting tension of 1.5 g. The strips are held in place by two surgical clips one of which is attached to fixed hook while the other is attached to an isometric force transducer. […] The carbachol is then washed out and the tissue allowed to relax to its resting level of activity. Following 1 further 30 min period of recovery an additional 15 mM KCl are introduced into the tissue bath. This increase in KCl concentration results in a large increase in the amplitude of spontaneous contractions (and initiation of contractions in previously quiescent strips) superimposed upon a small increase in basal tone. Following stabilization of this enhanced level of contractile activity, incremental increases in the concentration of test compound or vehicle are introduced into the tissue bath. Contractile activity is measured for each compound or vehicle concentration during the last min of a 30 min challenge.
Isometric force developed by the bladder strips is measured using a […] to elicit 50% inhibition of pre-drug contractile activity (IC50 concentration) is calculated from this concentration-response curve. The maximum percentage inhibition of contractile activity evoked by a test compound is also recorded for concentrations of test compound<or equal to 30 uM.

Regarding `CC1(C)Oc2ccc(OC(F)(F)F)cc2[C@@H](n2[nH]c3ccccc3c2=O)[C@@H]1O` [Example 1, (-)-2-[(3S,4R)-3-Hydroxy-2,2-dimethyl-6-trifluoromethoxy-chroman-4-yl]-1,2-dihydro-indazol-3-one], in data set [1] (0.1 mg/kg p.o., 15 m), the “Max Δ BP (mean arterial blood pressure)” value is listed as -41 mm Hg; the “Max Δ BP, %” value is listed as -21 ± 3%; the “Max Δ HR (heart rate)” value is “+58 beats/min”; the “Max Δ HR, %” value is “+16 ± 6%”. Besides, in data set [1] (0.1 mg/kg p.o., 2 h), the “Δ BP (mean arterial blood pressure)” value is -13 mm Hg; the “Δ BP, %” value is -7 ± 2%; the “Δ HR (heart rate)” value was -29 beats/min; the “Δ HR, %” value is -7 ± 3%. Besides, in data set [1] (0.3 mg/kg p.o., 30 m), the “Max Δ BP (mean arterial blood pressure)” value is listed as -102 mm Hg; the “Max Δ BP, %” value is reported as -55 ± 2%; the “Max Δ HR (heart rate)” value was “+90 beats/min”; the “Max Δ HR, %” value was “+25 ± 6%”. In data set [1] (0.3 mg/kg p.o., 4 h), the “Δ BP (mean arterial blood pressure)” value is -22 mm Hg; the “Δ BP, %” value is reported as -12 ± 4%; the “Δ HR (heart rate)” value is recorded as “+36 beats/min”; the “Δ HR, %” value is listed as “+10 ± 4%”. In data set [1] (1.0 mg/kg p.o., 45 m), the “Max Δ BP (mean arterial blood pressure)” value is -112 mm Hg; the “Max Δ BP, %” value was -59 ± 4%; the “Max Δ HR (heart rate)” value is “+41 beats/min”; the “Max Δ HR, %” value was “+11 ± 12%”. Moreover, in data set [1] (1.0 mg/kg p.o., 4 h), the “Δ BP (mean arterial blood pressure)” value was -92 mm Hg; the “Δ BP, %” value is listed as -47 ± 15%; the “Δ HR (heart rate)” value is given as -31 beats/min; the “Δ HR, %” value is given as -9 ± 13%. Further, the IC50 in data set [2] is 44 nM. For the same compound, the inhibition at 0.3 µM in data set [2] (at 0.3 μM, read-out: Inhibition of Force (%) at (x) μM) was 100%.
As to `Cn1c2ccccc2c(=O)n1[C@@H]1c2cc(OC(F)(F)F)ccc2OC(C)(C)[C@H]1O` [Example 2, (-)-2-[(3S,4R)-3-Hydroxy-2,2-dimethyl-6-trifluoromethoxy-chroman-4-yl]-1-methyl-1,2-dihydro-indazol-3-one], in data set [1] (1.0 mg/kg p.o., 45 m), the “Max Δ BP (mean arterial blood pressure)” value is on record as -22 mm Hg; the “Max Δ BP, %” value is reported as -13 ± 2%; the “Max Δ HR (heart rate)” value was “+17 beats/min”; the “Max Δ HR, %” value is recorded as “+4 ± 1%”. In data set [2], the IC50 was determined as 9000 nM. For the same compound, the inhibition at 10 µM in data set [2] (at 10 μM, read-out: Inhibition of Force (%) at (x) μM) amounted to 58%.
Take `CC1(C)Oc2ccc(OC(F)(F)F)cc2[C@H](n2[nH]c3ccccc3c2=O)[C@H]1O` [Example 7, (+)-2-[(3R,4S)-3-Hydroxy-2,2-dimethyl-6-trifluoromethoxychroman-4-yl]-1,2-dihydro-indazol-3-one]: in data set [1] (0.1 mg/kg p.o., 5 m), the “Max Δ BP (mean arterial blood pressure)” value is reported as -12 mm Hg; the “Max Δ BP, %” value is recorded as -7 ± 1%; the “Max Δ HR (heart rate)” value was “+39 beats/min”; the “Max Δ HR, %” value was “+10 ± 3%”. In data set [1] (1.0 mg/kg p.o., 30 m), the “Max Δ BP (mean arterial blood pressure)” value is reported as -96 mm Hg; the “Max Δ BP, %” value is given as -51 ± 1%; the “Max Δ HR (heart rate)” value is given as “+114 beats/min”; the “Max Δ HR, %” value is “+31 ± 7%”. Besides, in data set [1] (1.0 mg/kg p.o., 4 h), the “Δ BP (mean arterial blood pressure)” value is recorded as -20 mm Hg; the “Δ BP, %” value is -11 ± 2%; the “Δ HR (heart rate)” value was “+38 beats/min”; the “Δ HR, %” value is listed as “+10 ± 4%”.
Compound `Cc1ccc2[nH]n([C@@H]3c4cc(OC(F)(F)F)ccc4OC(C)(C)[C@H]3O)c(=O)c2c1` [Example 8, (-)-2-[(3S,4R)-3-Hydroxy-2,2-dimethyl-6-trifluoromethoxy-chroman-4-yl]-5-methyl-1,2-dihydro-indazol-3-one] came in with an IC50 in data set [2] of 11 nM.

In general, IC50 refers to the concentration at which inhibition is half-maximal. Low values mean greater potency, high ones weaker potency. For orientation: inhibition means the relative decrease from the control value, in per cent.
